# Results published in PubChem BioAssay (NCI).
#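 1) Cells in 96-well plates. 2) Compound, 48 h, 5 concentrations. 3) Linear interpolation between surrounding doses. 4) Unreached endpoint = highest concentration. TGI: concentration producing complete growth inhibition.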
# Experiments:
# Assay in all cases: NCI anticancer screen, dose series, 48 h
# SK-OV-3 ovarian = system: SK-OV-3 ovarian
# KM20L2 colon = system: KM20L2 colon
# K-562 leukemia = system: K-562 leukemia
# NCI-H460 lung = system: NCI-H460 lung
# A498 renal = system: A498 renal
# RPMI-8226 leukemia = system: RPMI-8226 leukemia
# TK-10 renal = system: TK-10 renal
# COLO 205 colon = system: COLO 205 colon
# HCT-116 colon = system: HCT-116 colon
# HT29 colon = system: HT29 colon
# M19-MEL melanoma = system: M19-MEL melanoma
# OVCAR-4 ovarian = system: OVCAR-4 ovarian
# M14 melanoma = system: M14 melanoma
# U251 CNS = system: U251 CNS
# HOP-92 NSCLC = system: HOP-92 NSCLC
# 786-0 renal = system: 786-0 renal
# ACHN renal = system: ACHN renal
# OVCAR-5 ovarian = system: OVCAR-5 ovarian
# A549 NSCLC = system: A549 NSCLC
# HOP-62 NSCLC = system: HOP-62 NSCLC
# NCI-H23 lung = system: NCI-H23 lung
# SK-MEL-5 melanoma = system: SK-MEL-5 melanoma
# LXFL 529 NSCLC = system: LXFL 529 NSCLC
# HCC-2998 colon = system: HCC-2998 colon
# DMS 273 small cell lung = system: DMS 273 small cell lung
# MALME-3M melanoma = system: MALME-3M melanoma
# SR leukemia = system: SR leukemia
# SF-268 CNS = system: SF-268 CNS
# SW-620 colon = system: SW-620 colon
# SN12C renal = system: SN12C renal
# HCT-15 colon = system: HCT-15 colon
# SK-MEL-28 melanoma = system: SK-MEL-28 melanoma
# NCI-H226 lung = system: NCI-H226 lung
# HL-60(TB) leukemia = system: HL-60(TB) leukemia
# UACC-257 melanoma = system: UACC-257 melanoma
# DMS 114 small cell lung = system: DMS 114 small cell lung
# OVCAR-8 ovarian = system: OVCAR-8 ovarian
# LOX IMVI melanoma = system: LOX IMVI melanoma
# UO-31 renal = system: UO-31 renal
# CAKI-1 renal = system: CAKI-1 renal
# IGROV1 ovarian = system: IGROV1 ovarian
# MOLT-4 leukemia = system: MOLT-4 leukemia
# OVCAR-3 ovarian = system: OVCAR-3 ovarian
# SNB-19 CNS = system: SNB-19 CNS
# SF-295 CNS = system: SF-295 CNS
# UACC-62 melanoma = system: UACC-62 melanoma
# RXF-631 renal = system: RXF-631 renal
# HOP-18 NSCLC = system: HOP-18 NSCLC
# CCRF-CEM leukemia = system: CCRF-CEM leukemia
# KM12 colon = system: KM12 colon
# SK-MEL-2 melanoma = system: SK-MEL-2 melanoma
# NCI-H522 lung = system: NCI-H522 lung
# SF-539 CNS = system: SF-539 CNS
# RXF 393 renal = system: RXF 393 renal
# SNB-78 CNS = system: SNB-78 CNS
# SNB-75 CNS = system: SNB-75 CNS
# DLD-1 colon = system: DLD-1 colon
# XF 498 CNS = system: XF 498 CNS
# EKVX NSCLC = system: EKVX NSCLC
smiles,measurement,setting,value
CC(=O)OCC12CC(CC1OC(C)=O)c1ccccc12 (stereo not given),TGI,SK-OV-3 ovarian,> 100 µM
same,TGI,KM20L2 colon,> 100 µM
same,TGI,K-562 leukemia,> 100 µM
same,TGI,NCI-H460 lung,> 100 µM
same,TGI,A498 renal,> 100 µM
same,TGI,RPMI-8226 leukemia,> 100 µM
same,TGI,TK-10 renal,> 100 µM
same,TGI,COLO 205 colon,> 100 µM
same,TGI,HCT-116 colon,> 100 µM
same,TGI,HT29 colon,> 100 µM
same,TGI,M19-MEL melanoma,> 100 µM
same,TGI,OVCAR-4 ovarian,> 100 µM
same,TGI,M14 melanoma,> 100 µM
same,TGI,U251 CNS,> 100 µM
same,TGI,HOP-92 NSCLC,> 100 µM
same,TGI,786-0 renal,> 100 µM
same,TGI,ACHN renal,> 100 µM
same,TGI,OVCAR-5 ovarian,> 100 µM
same,TGI,A549 NSCLC,> 100 µM
same,TGI,HOP-62 NSCLC,> 100 µM
same,TGI,NCI-H23 lung,> 100 µM
same,TGI,SK-MEL-5 melanoma,> 100 µM
same,TGI,LXFL 529 NSCLC,> 100 µM
same,TGI,HCC-2998 colon,> 100 µM
same,TGI,DMS 273 small cell lung,> 100 µM
same,TGI,MALME-3M melanoma,> 100 µM
same,TGI,SR leukemia,> 100 µM
same,TGI,SF-268 CNS,> 100 µM
same,TGI,SW-620 colon,> 100 µM
same,TGI,SN12C renal,> 100 µM
same,TGI,HCT-15 colon,> 100 µM
same,TGI,SK-MEL-28 melanoma,> 100 µM
same,TGI,NCI-H226 lung,> 100 µM
same,TGI,HL-60(TB) leukemia,> 100 µM
same,TGI,UACC-257 melanoma,> 100 µM
same,TGI,DMS 114 small cell lung,> 100 µM
same,TGI,OVCAR-8 ovarian,> 100 µM
same,TGI,LOX IMVI melanoma,> 100 µM
same,TGI,UO-31 renal,> 100 µM
same,TGI,CAKI-1 renal,> 100 µM
same,TGI,IGROV1 ovarian,> 100 µM
same,TGI,MOLT-4 leukemia,> 100 µM
same,TGI,OVCAR-3 ovarian,> 100 µM
same,TGI,SNB-19 CNS,> 100 µM
same,TGI,SF-295 CNS,> 100 µM
same,TGI,UACC-62 melanoma,> 100 µM
same,TGI,RXF-631 renal,> 100 µM
same,TGI,HOP-18 NSCLC,> 100 µM
same,TGI,CCRF-CEM leukemia,> 100 µM
CC1OC(n2cc(F)c(=O)[nH]c2=O)CCC1=O (stereo not given),TGI,SK-OV-3 ovarian,> 100 µM
same,TGI,KM20L2 colon,> 100 µM
same,TGI,K-562 leukemia,> 100 µM
same,TGI,KM12 colon,> 100 µM
same,TGI,NCI-H460 lung,> 100 µM
same,TGI,A498 renal,> 100 µM
same,TGI,SK-MEL-2 melanoma,> 100 µM
same,TGI,RPMI-8226 leukemia,> 100 µM
same,TGI,TK-10 renal,> 100 µM
same,TGI,COLO 205 colon,> 100 µM
same,TGI,HCT-116 colon,> 100 µM
same,TGI,HT29 colon,> 100 µM
same,TGI,M19-MEL melanoma,> 100 µM
same,TGI,OVCAR-4 ovarian,> 100 µM
same,TGI,M14 melanoma,> 100 µM
same,TGI,U251 CNS,> 100 µM
same,TGI,NCI-H522 lung,> 100 µM
same,TGI,SF-539 CNS,88.7 µM
same,TGI,HOP-92 NSCLC,> 100 µM
same,TGI,RXF 393 renal,> 100 µM
same,TGI,SNB-78 CNS,> 100 µM
same,TGI,786-0 renal,> 100 µM
same,TGI,ACHN renal,> 100 µM
same,TGI,OVCAR-5 ovarian,> 100 µM
same,TGI,A549 NSCLC,> 100 µM
same,TGI,HOP-62 NSCLC,> 100 µM
same,TGI,SK-MEL-5 melanoma,> 100 µM
same,TGI,LXFL 529 NSCLC,> 100 µM
same,TGI,HCC-2998 colon,> 100 µM
same,TGI,DMS 273 small cell lung,> 100 µM
same,TGI,MALME-3M melanoma,> 100 µM
same,TGI,SR leukemia,> 100 µM
same,TGI,SF-268 CNS,> 100 µM
same,TGI,SW-620 colon,> 100 µM
same,TGI,SN12C renal,> 100 µM
same,TGI,HCT-15 colon,> 100 µM
same,TGI,NCI-H226 lung,> 100 µM
same,TGI,HL-60(TB) leukemia,> 100 µM
same,TGI,UACC-257 melanoma,> 100 µM
same,TGI,DMS 114 small cell lung,> 100 µM
same,TGI,OVCAR-8 ovarian,> 100 µM
same,TGI,LOX IMVI melanoma,> 100 µM
same,TGI,SNB-75 CNS,> 100 µM
same,TGI,UO-31 renal,> 100 µM
same,TGI,CAKI-1 renal,> 100 µM
same,TGI,IGROV1 ovarian,> 100 µM
same,TGI,MOLT-4 leukemia,> 100 µM
same,TGI,DLD-1 colon,> 100 µM
same,TGI,SNB-19 CNS,> 100 µM
same,TGI,SF-295 CNS,> 100 µM
same,TGI,UACC-62 melanoma,> 100 µM
same,TGI,RXF-631 renal,> 100 µM
same,TGI,HOP-18 NSCLC,> 100 µM
same,TGI,CCRF-CEM leukemia,> 100 µM
O=C1CCC2(c3ccc(Cl)cc3)Nc3ccccc3N12 (stereo not given),TGI,KM20L2 colon,> 100 µM
same,TGI,K-562 leukemia,> 100 µM
same,TGI,KM12 colon,> 100 µM
same,TGI,NCI-H460 lung,> 100 µM
same,TGI,A498 renal,> 100 µM
same,TGI,SK-MEL-2 melanoma,> 100 µM
same,TGI,RPMI-8226 leukemia,> 100 µM
same,TGI,TK-10 renal,> 100 µM
same,TGI,COLO 205 colon,> 100 µM
same,TGI,HCT-116 colon,> 100 µM
same,TGI,HT29 colon,> 100 µM
same,TGI,M19-MEL melanoma,> 100 µM
same,TGI,OVCAR-4 ovarian,> 100 µM
same,TGI,U251 CNS,> 100 µM
same,TGI,NCI-H522 lung,> 100 µM
same,TGI,SF-539 CNS,> 100 µM
same,TGI,HOP-92 NSCLC,90.6 µM
same,TGI,XF 498 CNS,> 100 µM
same,TGI,RXF 393 renal,> 100 µM
same,TGI,SNB-78 CNS,> 100 µM
same,TGI,786-0 renal,> 100 µM
same,TGI,ACHN renal,> 100 µM
same,TGI,OVCAR-5 ovarian,> 100 µM
same,TGI,A549 NSCLC,> 100 µM
same,TGI,HOP-62 NSCLC,> 100 µM
same,TGI,NCI-H23 lung,> 100 µM
same,TGI,LXFL 529 NSCLC,> 100 µM
same,TGI,HCC-2998 colon,> 100 µM
same,TGI,MALME-3M melanoma,> 100 µM
same,TGI,SR leukemia,> 100 µM
same,TGI,SF-268 CNS,> 100 µM
same,TGI,SW-620 colon,> 100 µM
same,TGI,SN12C renal,> 100 µM
same,TGI,HCT-15 colon,> 100 µM
same,TGI,SK-MEL-28 melanoma,> 100 µM
same,TGI,NCI-H226 lung,> 100 µM
same,TGI,EKVX NSCLC,> 100 µM
same,TGI,HL-60(TB) leukemia,> 100 µM
same,TGI,UACC-257 melanoma,> 100 µM
same,TGI,DMS 114 small cell lung,> 100 µM
same,TGI,OVCAR-8 ovarian,> 100 µM
same,TGI,LOX IMVI melanoma,> 100 µM
same,TGI,SNB-75 CNS,> 100 µM
same,TGI,UO-31 renal,> 100 µM
same,TGI,IGROV1 ovarian,> 100 µM
same,TGI,MOLT-4 leukemia,> 100 µM
same,TGI,DLD-1 colon,> 100 µM
same,TGI,SNB-19 CNS,> 100 µM
same,TGI,SF-295 CNS,> 100 µM
same,TGI,RXF-631 renal,> 100 µM
same,TGI,HOP-18 NSCLC,> 100 µM
Cn1cnc([N+](=O)[O-])c1Sc1n[nH]c(-c2ccc(Cl)cc2)n1,TGI,SK-OV-3 ovarian,95.7 µM
same,TGI,K-562 leukemia,51.3 µM
same,TGI,KM12 colon,39.2 µM
same,TGI,NCI-H460 lung,53.6 µM
same,TGI,A498 renal,56.1 µM
same,TGI,SK-MEL-2 melanoma,29.9 µM
same,TGI,RPMI-8226 leukemia,87.7 µM
same,TGI,TK-10 renal,43.8 µM
same,TGI,COLO 205 colon,30.9 µM
same,TGI,HCT-116 colon,58.1 µM
same,TGI,HT29 colon,42.5 µM
same,TGI,M19-MEL melanoma,47.7 µM
same,TGI,OVCAR-4 ovarian,57.4 µM
same,TGI,M14 melanoma,33.5 µM
same,TGI,U251 CNS,48.9 µM
same,TGI,NCI-H522 lung,24.9 µM
same,TGI,SF-539 CNS,29.9 µM
same,TGI,HOP-92 NSCLC,37.6 µM
same,TGI,XF 498 CNS,27.6 µM
same,TGI,RXF 393 renal,26.5 µM
same,TGI,SNB-78 CNS,70.7 µM
same,TGI,786-0 renal,51.5 µM
same,TGI,ACHN renal,41.7 µM
same,TGI,OVCAR-5 ovarian,63.6 µM
same,TGI,A549 NSCLC,77.8 µM
same,TGI,HOP-62 NSCLC,54.9 µM
same,TGI,NCI-H23 lung,37.9 µM
same,TGI,SK-MEL-5 melanoma,29.8 µM
same,TGI,LXFL 529 NSCLC,36.7 µM
same,TGI,HCC-2998 colon,40.6 µM
same,TGI,DMS 273 small cell lung,37.3 µM
same,TGI,MALME-3M melanoma,26.4 µM
same,TGI,SR leukemia,42 µM
same,TGI,SF-268 CNS,50.7 µM
same,TGI,SW-620 colon,78 µM
same,TGI,SN12C renal,31.6 µM
same,TGI,SK-MEL-28 melanoma,30.3 µM
same,TGI,NCI-H226 lung,34.5 µM
same,TGI,EKVX NSCLC,79.9 µM
same,TGI,UACC-257 melanoma,39.6 µM
same,TGI,DMS 114 small cell lung,49.7 µM
same,TGI,OVCAR-8 ovarian,32.4 µM
same,TGI,LOX IMVI melanoma,30.1 µM
same,TGI,SNB-75 CNS,50.7 µM
same,TGI,UO-31 renal,60.5 µM
same,TGI,CAKI-1 renal,78.8 µM
same,TGI,IGROV1 ovarian,62.3 µM
same,TGI,MOLT-4 leukemia,38.1 µM
same,TGI,DLD-1 colon,52.5 µM
same,TGI,OVCAR-3 ovarian,40.4 µM
same,TGI,SNB-19 CNS,51 µM
same,TGI,SF-295 CNS,58.8 µM
same,TGI,UACC-62 melanoma,28.4 µM
same,TGI,RXF-631 renal,59 µM
same,TGI,HOP-18 NSCLC,8.3 µM
same,TGI,CCRF-CEM leukemia,39.6 µM
